Tests used:
[1] = test system: PC-3 cells (prostate tumor cell line); test: Binding kinetics of 125I-DU-Sigi1 on PC-3 cells; set-up: species or system human; conditions: data not shown
[2] = test system: PC-3 cells (prostate tumor cell line); test: Competition assay of 125I-DU-Sigi1 with unlabeled DU-Sigi1 on PC-3 cells; format: binding, human; conditions: data not shown
[3] = test system: DU-145 prostate tumor cells; test: Binding kinetics of 125I-DU-Sigi1 on DU-145 cells; set-up: species or system human
Description: The peptide DU-Sigi1 (FRPNRAQDYNTN) was prepared by chemical synthesis and labelled with ^125I. 200,000 DU-145 cells (human prostate tumor cell line) were seeded into 6-well plates and cultivated for 24 hours. Then, the medium was replaced by fresh medium (without FCS). ^125I-labelled peptide was added to the cell culture (1-2 mio cpm/well) and incubated for times from 1 min to 4 h. After the incubation time the cells were collected and washed for three times with 1 ml PBS per washing. Then, the cells were lysed with 0.3 M NaOH. Radioactivity of the lysed cells was determined with a gamma counter and radioactivity as percent applied dose per 1 million cells was calculated. It could be shown that the binding of DU-Sigi1 is rapid and the highest binding rate occurs after 5 min. Then the amount of bound peptide decreases and reaches a basal level of about 1.5 % applied dose/1 mio cells.

[4] = test system: human tumor cell lines (DU-145, PC-3, IMR5-75, MDA-MB-435, SW-1736, NPA-87); test: Binding of 125I-DU-Sigi1 to human tumor cell lines
Description: (§1) The peptide DU-Sigi1 (FRPNRAQDYNTN) was prepared by chemical synthesis and labelled with ^125I. For in vitro studies, 200,000 cells (DU-145, human prostate tumor cell line; PC-3, human prostate cell line; HUVEC, human primary endothelial cells, IMR5-75, human neuroblastoma cell line, MDA-MB-435, human breast cancer cell line, SW-1736, human thyroid cancer cell line, NPA-87, human thyroid cancer cell line) were seeded into 6-well plates and cultivated for 24 hours. Then, the medium was replaced by fresh medium (without FCS) and for the plates with competitor, unlabelled peptide was added (10^-4 M) and preincubated for 30 min. Then, ^125I-labelled peptide was added to the cell culture (1-2 mio cpm/well) and incubated for 10 min. The cells were collected and washed for three times with 1 ml PBS per washing. Then, the cells were lysed with 0.3 M NaOH. Radioactivity of the lysed cells was determined with a gamma counter and radioactivity as percent applied dose per 1 million cells was calculated.

[5] = test system: HUVEC, human primary endothelial cells; test: Binding of 125I-DU-Sigi1 to primary endothelial cells; conditions: ^125I-labelled peptide, 1-2 mio cpm/well, 10 min incubation
Description: as §1

[6] = test system: DU-145 prostate tumor cells; test: Competition assay of 125I-DU-Sigi1 with unlabeled competitor on DU-145 cells; format: binding, human; conditions: for inhibition of binding of ^125I-DU-Sigi1: 10 min at 37°C
Description: The peptide DU-Sigi1 (FRPNRAQDYNTN) was prepared by chemical synthesis and labeled with ^125I. 200,000 DU-145 cells (human prostate tumor cell line) were seeded into 6-well plates and cultivated for 24 hours. Then, the medium was replaced by fresh medium (without FCS). Different competitor concentrations (unlabeled DU-Sigi1) were added to the medium 30 min before the ^125I-labeled peptide was added to the wells (1-2 mio cpm/well) and incubated for 10 min at 37°C.[…], After the incubation time the cells were collected and washed for three times with 1 ml PBS per washing. Then, the cells were lysed with 0.3 M NaOH. Radioactivity of the lysed cells was determined with a gamma counter and radioactivity as percent applied dose per 1 million cells was calculated. […] The ID50 is approx. 50 µM.

[7] = test system: human prostate tumor (DU-145); test: Organ distribution of intravenously injected 131I-labeled DU-Sigi1 in tumor-bearing mice; format: in vivo, male nu/nu mice; conditions: i.v., 28 mio cpm/mouse, 15 min and 45 min postinjection
Description: The peptide DU-Sigi1 (FRPNRAQDYNTN) was prepared by chemical synthesis and labeled with ^131I. ^131I labeled peptide DU-Sigi1 (FRPNRAQDYNTN) (28 mio cpm/mouse) was intravenously injected into male nu/nu mice, which subcutaneously carried a human prostate tumor (DU-145). 15 min. and 45 min, respectively, postinjection the mice were sacrificed. The organs were removed, weighed and the radioactivity was determined with a gamma counter. […] The high blood volumn might be due to the degradation of the peptide by serum peptidases and proteases.

FRPNRAQDYNTN [DU-Sigi1]
binding kinetics compared with DU-145 cells [1]: The same results were obtained | competition compared with DU-145 cells [2]: The same results were obtained | basal level of bound peptide ([3]; after the binding maximum, incubation up to 4 h): about 1.5 % applied dose/1 mio cells | time of highest binding rate ([3]; incubation times from 1 min to 4 h): 5 min | binding of labelled peptide to tumor cells ([4]; ^125I-labelled peptide, 1-2 mio cpm/well, 10 min incubation): specifically binds to the various tumor cells | competitive inhibition of binding ([4]; unlabelled peptide 10^-4 M, preincubated for 30 min): up to 95% | binding of labelled peptide to primary endothelial cells [5]: not the primary endothelial cells | ID50 ([6]; unlabeled DU-Sigi1 as competitor of ^125I-DU-Sigi1): approx. 50 µM | inhibition of binding of ^125I-DU-Sigi1 ([6]; unlabeled DU-Sigi1 concentration 10^-4, added 30 min before): more than 95% | inhibition of binding of ^125I-DU-Sigi1 ([6]; unlabeled DU-Sigi1 concentration 10^-5, added 30 min before): more than 95% | accumulation in tumor versus other organs [7]: accumulates in the tumor to a higher extent than in the other organs, with the exeption of the kidney

octreotide [reference compound]
competition with ^125I-DU-Sigi1 binding ([6]; unlabeled competitor, same concentration, data not shown): No competition
